From PubChem BioAssay AID492977 (The Scripps Research Institute Molecular Screening Center, 2010)
Active and inactive are the calls of the source.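 How the source made its calls: active means inhibition of the parasite aminopeptidase above 50%; inactive means the rest.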

Biological target: Leucine aminopeptidase (Plasmodium falciparum (isolate 3D7)) (UniProt Q8IL11)
Assay: inhibition of purified malaria M17 aminopeptidase – biochemical, fluorescence, recombinant enzyme, powder samples, late-stage follow-up (AID 492977)
Details: recombinant PfM17LAP, H-Leu-NHMec fluorogenic substrate; at 5 µM; stronger effect = higher value

Sequence of Leucine aminopeptidase (Plasmodium falciparum (isolate 3D7)) (Q8IL11 whole entry, looked up): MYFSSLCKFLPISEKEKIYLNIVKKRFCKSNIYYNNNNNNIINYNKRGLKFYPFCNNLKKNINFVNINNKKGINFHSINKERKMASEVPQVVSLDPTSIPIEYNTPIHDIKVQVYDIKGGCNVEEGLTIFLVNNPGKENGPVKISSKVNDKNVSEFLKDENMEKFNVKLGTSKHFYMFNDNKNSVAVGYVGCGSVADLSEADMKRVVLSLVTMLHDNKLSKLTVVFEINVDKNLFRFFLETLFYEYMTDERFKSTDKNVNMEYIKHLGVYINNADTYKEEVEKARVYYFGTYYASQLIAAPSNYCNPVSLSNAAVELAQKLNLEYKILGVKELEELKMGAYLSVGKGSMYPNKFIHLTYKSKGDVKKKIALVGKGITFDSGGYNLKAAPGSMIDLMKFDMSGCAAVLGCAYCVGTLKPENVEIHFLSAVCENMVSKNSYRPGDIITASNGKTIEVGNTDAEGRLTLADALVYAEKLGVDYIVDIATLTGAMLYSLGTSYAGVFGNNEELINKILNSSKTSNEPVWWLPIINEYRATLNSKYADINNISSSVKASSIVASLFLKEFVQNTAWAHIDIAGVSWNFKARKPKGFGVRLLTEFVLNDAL

Structure (SMILES) | inhibition
CCOc1ccc(NC(=O)Nc2cccs2)cc1 | 31% (inactive)
Cc1cc(C(=O)COC(=O)c2ccc[nH]c2=O)c(C)n1-c1ccccc1 | 23% (inactive)
C=CCn1c(SCC(=O)Nc2cccc3ccccc23)nc(O)c(CC)c1=O | 20% (inactive)
O=C(CSc1nnc(Nc2ccccc2)s1)NN1C(=O)NC2(CCCCC2)C1=O | 37% (inactive)
Cc1ccc(Nc2nnc(SC3CCOC3=O)s2)cc1 (configuration not stated) | 53%
CCCCc1c(O)nc(SCC(=O)Nc2ccc3c(c2)CCC3)[nH]c1=O | 27% (inactive)
Cn1c(SCC(=O)Nc2cccc3ccccc23)nc(O)cc1=O | 12% (inactive)
Cc1ccc(-c2cccc(NC(=O)[C@@H]3C4C=CC(C4)[C@@H]3C(=O)O)c2)o1 (some centres not stated) | 9% (inactive)
O=C(Nc1cc(Cl)ccc1Cl)[C@H]1CC=CC[C@H]1C(=O)O | 14% (inactive)
CCOC(=O)c1c(NC(=O)[C@@H]2C3CCC(O3)[C@@H]2C(=O)O)sc(C)c1-c1ccc(C)cc1 (some centres not stated) | 20% (inactive)
CC1=C(C)C[C@@H](C(=O)O)[C@@H](C(=O)Nc2cccc([N+](=O)[O-])c2)C1 | 12% (inactive)
N#Cc1c(NC(=O)[C@@H]2C3C=CC(C3)[C@@H]2C(=O)O)sc2c1CCCCC2 (some centres not stated) | 25% (inactive)
COC(=O)c1c(-c2cc(C)ccc2C)csc1NC(=O)[C@@H]1CC=CC[C@@H]1C(=O)O | 58%
Cc1ccc(-n2c(C)cc(C(=O)COC(=O)c3ccc[nH]c3=O)c2C)cc1 | 40% (inactive)
CCn1c2ccccc2c2cc(NC(=O)CSc3nccc(=O)[nH]3)ccc21 | 70%
CCc1ccc(Nc2nnc(SC3CCOC3=O)s2)cc1 (configuration not stated) | 31% (inactive)
O=C(O)CCCCCNC(=O)Nc1ccc2c(c1)OCCO2 | 15% (inactive)
O=C(Nc1cccc(Cl)c1)[C@H]1CC=CC[C@H]1C(=O)O | 13% (inactive)

Structure (SMILES) | inhibition
CCc1ccc(NC(=O)[C@H]2CC=CC[C@H]2C(=O)O)cc1 | 27% (inactive)
O=C(Nc1ccc(Cl)cc1)Nc1cccc(C(=O)O)c1 | 65%
CCOc1ccc(NC(=O)Nc2ccc3nccnc3c2)cc1 | 11% (inactive)
Cc1ccc(-n2c(C)cc(C(=O)COC(=O)c3ccc[nH]c3=O)c2C)cc1C | 36% (inactive)
COC(=O)c1c(NC(=O)[C@H]2CCCC[C@H]2C(=O)O)sc2c1CCCCC2 | 59%
CC(C)c1ccc(NC(=O)[C@H]2CCCC[C@H]2C(=O)O)cc1 | 15% (inactive)
O=C(O)Cc1ccc(NC(=O)Nc2ccc(Br)cc2)cc1 | 38% (inactive)
COC(=O)c1c(NC(=O)[C@H]2CC=CC[C@H]2C(=O)O)sc(C)c1C | 17% (inactive)
CCOC(=O)c1c(-c2cccc(C)c2)csc1NC(=O)[C@H]1CC=CC[C@H]1C(=O)O | 19% (inactive)
CCOC(=O)c1c(NC(=O)[C@@H]2C3C=CC(C3)[C@@H]2C(=O)O)sc2c1CCC(CC)C2 (some centres not stated) | 20% (inactive)
CCOC(=O)c1c(-c2ccc(C)cc2)csc1NC(=O)[C@H]1CC=CC[C@H]1C(=O)O | 24% (inactive)
O=C(CSc1nc(O)cc(=O)n1-c1ccccc1)Nc1ccc2c3c(cccc13)CC2 | 20% (inactive)
Cc1ccc(-c2c(C)sc(NC(=O)[C@@H]3C4CCC(O4)[C@@H]3C(=O)O)c2C(=O)OC(C)C)cc1 (some centres not stated) | 19% (inactive)
COC(=O)c1c(-c2ccco2)csc1NC(=O)[C@H]1CC=CC[C@H]1C(=O)O | 50% (inactive)
COC(=O)c1c(-c2ccc(C)cc2)csc1NC(=O)[C@H]1CC=CC[C@H]1C(=O)O | 47% (inactive)
Cc1cc(C(=O)COC(=O)c2ccc[nH]c2=O)c(C)n1-c1ccc(F)cc1 | 19% (inactive)
Cc1ccc(Nc2nnc(SCc3cc(=O)n4ccsc4n3)s2)c(C)c1 | 10% (inactive)

Second part, the molecule after the results:

inhibition | Structure (SMILES)
90% | CCc1cc2ccc(C)cc2nc1SCC(=O)Nc1cc(OC)c(OC)cc1C(=O)O
93% | COc1cc(NC(=O)CSc2nc3c(C)ccc(C)c3cc2C)c(C(=O)O)cc1OC
17% (inactive) | Cc1ccc(NC(=O)CSc2nnc(C)c(=O)[nH]2)cc1C
82% | COc1cc(NC(=O)CSc2nc3cc(C)ccc3cc2C)c(C(=O)O)cc1OC
18% (inactive) | COc1ccc(-c2cc(=O)[nH][nH]2)cc1OC
21% (inactive) | COc1ccc(NC(=O)CSC2=NC(=O)CC(C)=N2)cc1
72% | CCOc1cccc(-c2cc(=O)[nH][nH]2)c1
21% (inactive) | COC(=O)c1cccc(NC(=O)CSc2nc(C)cc(=O)[nH]2)c1
45% (inactive) | S=c1nc(-c2cccc(Cl)c2)[nH][nH]1
72% | COc1cc(NC(=O)CSc2nnc3c(C)cc4cc(C)cc(C)c4n23)c(C(=O)O)cc1OC
43% (inactive) | CCN(CC)c1ccc(NC(=O)CSc2nc(C)cc(=O)[nH]2)cc1
40% (inactive) | COc1ccc(-c2cc(=O)[nH][nH]2)cc1
49% (inactive) | O=c1cc(-c2ccc(F)cc2)[nH][nH]1
60% | O=C(CSc1nccc(=O)[nH]1)Nc1ccc(Br)c(Cl)c1
89% | CCc1cc2ccccc2nc1SCC(=O)Nc1cc(OC)c(OC)cc1C(=O)O
26% (inactive) | COc1ccc(C(C)(C)C)cc1NC(=O)[C@H]1CC=CC[C@H]1C(=O)O
86% | COc1ccc2nc(SCC(=O)Nc3cc(OC)c(OC)cc3C(=O)O)c(C)cc2c1
2% (inactive) | O=c1cc(-c2ccc(Cl)c(Cl)c2)[nH][nH]1
18% (inactive) | COc1ccc(NC(=O)CSc2nc(O)cc(=O)n2C)cc1
89% | CCc1cc2cc(OC)ccc2nc1SCC(=O)Nc1cc(OC)c(OC)cc1C(=O)O
86% | COc1cc(NC(=O)CSc2nc3ccccc3cc2C)c(C(=O)O)cc1OC
27% (inactive) | S=c1nc(-c2ccccc2Br)[nH][nH]1
